Assay results published in the supplement of paper PMC10307832.

Columns and labels:
Experiment in all cases: relative viability (nuclei count vs DMSO), 5 days (fraction); higher = more cells survive
MK-8033 + AZD7762 = compound: Cn1cc(-c2cnc3ccc4ccc(CS(=O)(=O)NCc5ccccn5)cc4c(=O)c3c2)cn1 [MK-8033] + NC(=O)Nc1cc(-c2cccc(F)c2)sc1C(=O)N[C@H]1CCCNC1 [AZD7762] (partner 0.2 µM)
In short: (§1)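 One day after seeding in 1536-well plates, lung cancer cell lines were dosed by pin tool. Dosing was either single-drug or a fixed anchor-drug dose plus five library-drug doses (not always all listed) in √10 steps. After 5 days, nuclei were stained in one fix-and-stain step and counted on 4× images, and relative viability is the nuclei count of treated wells over that of vehicle wells, given as the median of duplicate plates.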

RU-SKI 43 + Palbociclib = compound: CC[C@@H](C)CNCC(=O)N1CCC2=C([C@@H]1COC3=CC=CC(=C3)C)C=CS2 [RU-SKI 43] + CC(=O)c1c(C)c2cnc(Nc3ccc(N4CCNCC4)cn3)nc2n(C2CCCC2)c1=O [Palbociclib] (partner 0.5 µM)
In short: as §1

MK-8033 + Navitoclax = compound: Cn1cc(-c2cnc3ccc4ccc(CS(=O)(=O)NCc5ccccn5)cc4c(=O)c3c2)cn1 [MK-8033] + CC1(C)CCC(c2ccc(Cl)cc2)=C(CN2CCN(c3ccc(C(=O)NS(=O)(=O)c4ccc(N[C@H](CCN5CCOCC5)CSc5ccccc5)c(S(=O)(=O)C(F)(F)F)c4)cc3)CC2)C1 [Navitoclax] (partner 0.5 µM)
In short: as §1

Irinotecan + Tozasertib = compound: CCc1c2c(nc3ccc(OC(=O)N4CCC(N5CCCCC5)CC4)cc13)-c1cc3c(c(=O)n1C2)COC(=O)[C@]3(O)CC [Irinotecan] + Cc1cc(Nc2cc(N3CCN(C)CC3)nc(Sc3ccc(NC(=O)C4CC4)cc3)n2)n[nH]1 [Tozasertib] (partner 0.1 µM)
In short: as §1

Row | Cell Line | relative viability (MK-8033 + AZD7762; first compound 0.02 µM) | relative viability (MK-8033 + AZD7762; first compound 0.06325 µM) | relative viability (MK-8033 + AZD7762; first compound 0.2 µM) | relative viability (MK-8033 + AZD7762; first compound 0.6325 µM) | relative viability (MK-8033 + AZD7762; first compound 2 µM) | relative viability (RU-SKI 43 + Palbociclib; first compound 0.1 µM) | relative viability (RU-SKI 43 + Palbociclib; first compound 0.3162 µM) | relative viability (RU-SKI 43 + Palbociclib; first compound 1 µM) | relative viability (RU-SKI 43 + Palbociclib; first compound 3.162 µM) | relative viability (RU-SKI 43 + Palbociclib; first compound 10 µM) | relative viability (MK-8033 + Navitoclax; first compound 0.02 µM) | relative viability (MK-8033 + Navitoclax; first compound 0.06325 µM) | relative viability (MK-8033 + Navitoclax; first compound 0.2 µM) | relative viability (MK-8033 + Navitoclax; first compound 0.6325 µM) | relative viability (MK-8033 + Navitoclax; first compound 2 µM) | relative viability (Irinotecan + Tozasertib; first compound 0.6325 µM) | relative viability (Irinotecan + Tozasertib; first compound 2 µM) | relative viability (Irinotecan + Tozasertib; first compound 6.325 µM) | relative viability (Irinotecan + Tozasertib; first compound 20 µM)
1 | LC-2-ad | 0.832 | 0.783 | 0.78 | 0.843 | 0.827 | 0.509 | 0.579 | 0.532 | 0.514 | 0.445 | 0.519 | 0.328 | 0.398 | 0.383 | 0.413 | 0.439 | 0.437 | 0.343 | 0.233
2 | LCLC-97TM1 | 0.248 | 0.338 | 0.268 | 0.227 | 0.222 | 0.296 | 0.189 | 0.281 | 0.222 | 0.231 | 0.402 | 0.506 | 0.396 | 0.398 | 0.401 | 0.14 | 0.176 | 0.125 | 0.113
3 | LK-2 | 0.454 | 0.288 | 0.316 | 0.363 | 0.427 | 0.685 | 0.912 | 0.949 | 0.673 | 0.674 | 0.907 | 0.853 | 0.807 | 0.924 | 0.772 | 0.183 | 0.192 | 0.287 | 0.352
4 | LOU-NH91 | 0.816 | 0.624 | 0.76 | 0.807 | 0.814 | 0.523 | 0.515 | 0.552 | 0.496 | 0.518 | 0.686 | – | 0.674 | 0.675 | 0.695 | 0.568 | 0.533 | 0.358 | 0.222
5 | LU99A | 0.522 | 0.27 | 0.367 | 0.458 | 0.317 | 0.376 | 0.442 | 0.53 | 0.399 | 0.387 | 0.751 | 0.667 | 0.794 | 0.819 | 0.593 | 0.257 | 0.223 | 0.153 | 0.225
6 | LXF-289 | 1.15 | 1.02 | 0.958 | 1.18 | 1.08 | 0.605 | 0.666 | 0.615 | 0.61 | 0.607 | 0.945 | 0.928 | 0.923 | 0.979 | 0.941 | 0.185 | 0.179 | 0.112 | 0.174
7 | NCI-H23 | 0.302 | 0.231 | 0.215 | – | 0.249 | 0.464 | 0.515 | 0.548 | 0.568 | 0.47 | 0.938 | 0.777 | 0.682 | 0.779 | 0.837 | 0.24 | 0.256 | 0.235 | 0.218
8 | NCI-H322M | 0.535 | 0.47 | 0.518 | 0.609 | 0.697 | 0.459 | 0.483 | 0.44 | 0.524 | 0.457 | 1.24 | 1.08 | 1.18 | 1.2 | 1.17 | 0.461 | 0.511 | 0.411 | 0.202
9 | NCI-H441 | 1 | 1.09 | 1.24 | 0.984 | 0.94 | 0.192 | 0.278 | 0.205 | 0.229 | 0.146 | 0.566 | 0.448 | 0.569 | 0.573 | 0.415 | 0.497 | 0.443 | 0.374 | 0.295
10 | NCI-H460 | 0.77 | 0.673 | 0.571 | 0.505 | 0.598 | 0.222 | 0.165 | 0.183 | 0.199 | 0.128 | 0.975 | 0.921 | 1.01 | 1.19 | 1.04 | 0.374 | 0.186 | 0.0861 | 0.0393
11 | NCI-H647 | 0.59 | 0.452 | 0.408 | 0.471 | 0.549 | 0.472 | 0.371 | 0.382 | 0.471 | 0.287 | 1.11 | 1.01 | 1.09 | 1.04 | 0.999 | 0.24 | 0.294 | 0.151 | 0.0868
12 | NCI-H727 | 0.697 | 0.614 | 0.519 | 0.758 | 0.574 | – | 0.559 | 0.682 | 0.671 | 0.622 | 0.377 | 0.435 | 0.311 | 0.465 | 0.486 | 0.524 | 0.551 | 0.47 | 0.507
13 | NCI-H838 | 0.904 | 0.92 | 0.945 | 0.901 | 0.862 | 0.213 | 0.233 | 0.225 | 0.239 | 0.188 | 1.13 | 1.14 | 1.01 | 1.22 | 1.08 | 0.283 | 0.491 | 0.23 | 0.242
14 | NCI-H1355 | 0.75 | 0.639 | 0.633 | 0.735 | 0.687 | 0.405 | 0.381 | 0.358 | 0.42 | 0.389 | 0.911 | 0.897 | 0.894 | 0.981 | 0.928 | – | 0.486 | 0.311 | 0.227
15 | NCI-H1395 | 0.397 | 0.35 | 0.381 | 0.383 | 0.389 | 0.638 | 0.685 | 0.714 | 0.624 | 0.573 | 1.38 | 1.02 | 1.04 | 1.15 | 1.07 | 0.607 | 0.716 | 0.594 | 0.494
16 | NCI-H1437 | 1.07 | 1.18 | 1.06 | 1.1 | 1.11 | 0.32 | 0.294 | 0.348 | 0.31 | 0.246 | 1.03 | 1.03 | 1.01 | 1 | 0.953 | 0.339 | 0.387 | 0.312 | 0.218
17 | NCI-H1651 | 0.551 | 0.397 | 0.482 | 0.479 | 0.564 | 0.522 | 0.533 | 0.532 | 0.537 | 0.542 | 1.06 | 1.03 | 1.07 | 1.13 | 1.02 | 0.532 | 0.575 | 0.255 | 0.183
18 | NCI-H1666 | 0.839 | 0.771 | 0.814 | 0.873 | 0.996 | 0.66 | 0.63 | 0.707 | 0.609 | 0.64 | 0.959 | 0.852 | 0.951 | 1.1 | 0.924 | 0.552 | 0.543 | 0.569 | 0.26
19 | NCI-H1734 | 0.544 | 0.361 | 0.522 | 0.572 | 0.54 | 0.351 | 0.323 | 0.358 | 0.325 | 0.298 | 0.811 | 0.818 | 0.763 | 0.878 | 0.837 | – | 0.279 | 0.198 | 0.33
20 | NCI-H1755 | 0.487 | 0.35 | 0.384 | 0.401 | 0.452 | 0.478 | 0.458 | 0.44 | 0.478 | 0.466 | 0.829 | 0.988 | 0.983 | 1.01 | 0.966 | 0.469 | 0.463 | 0.316 | 0.405
21 | NCI-H1793 | 0.442 | – | 0.331 | 0.413 | 0.328 | 0.331 | 0.222 | 0.326 | 0.336 | 0.27 | 0.454 | – | 0.291 | 0.38 | 0.508 | – | 0.345 | 0.217 | 0.219
22 | NCI-H1915 | 0.671 | 0.627 | 0.684 | 0.681 | 0.711 | 0.51 | 0.543 | 0.559 | 0.541 | 0.525 | 0.812 | 0.699 | 0.801 | 0.811 | 0.783 | 0.312 | 0.27 | 0.192 | 0.173
23 | NCI-H1944 | 0.549 | 0.377 | 0.525 | 0.497 | 0.561 | 0.34 | 0.334 | 0.328 | 0.316 | 0.303 | 1.15 | – | 0.991 | 1.02 | 1.03 | 0.222 | 0.202 | 0.167 | 0.135
24 | NCI-H1975 | 0.72 | 0.777 | 0.691 | 0.617 | 0.689 | 0.642 | 0.626 | 0.669 | 0.541 | 0.352 | 1.12 | 0.92 | 1.08 | 1.08 | 1.07 | 0.929 | 0.726 | 0.354 | 0.199
25 | NCI-H1993 | 0.657 | 0.679 | 0.584 | 0.529 | 0.407 | 0.611 | 0.727 | 0.697 | 0.748 | 0.613 | 0.866 | 0.781 | 0.859 | 0.83 | 0.708 | 0.582 | 0.71 | 0.639 | 0.644
26 | NCI-H2085 | 0.975 | 0.878 | 0.923 | 0.988 | 0.836 | 0.514 | 0.444 | 0.467 | 0.48 | 0.461 | 1.03 | 1.03 | 1.1 | 1.13 | 1.14 | 0.843 | 0.726 | 0.505 | 0.51
27 | NCI-H2087 | 1.43 | 1.32 | 1.22 | 1.3 | 1.22 | 0.253 | 0.215 | 0.288 | 0.238 | 0.19 | 1.1 | 0.877 | 0.916 | 1 | 1.05 | 0.184 | 0.239 | 0.36 | 0.192
28 | NCI-H2126 | 1.06 | 0.993 | 1.02 | 0.942 | 1.02 | 0.355 | 0.37 | 0.38 | 0.355 | 0.353 | 0.836 | 0.838 | 0.861 | 0.832 | 0.827 | – | 0.813 | 0.46 | 0.206
